Square brackets hold non-standard residues; d marks the D form. * marks the point of attachment. pGlu = O=C1CC[C@@H](C(=O)O)N1; Octanoyl = CCCCCCCC(=O)*

The assay in a line: Oxygen saturation in mouse model of LPS-inflamed lungs (Rodent Pulse Oximeter). In kind it is in vivo, Balb/C female mice. As to the method: Evaluation of the effect of ZEP3Na administration via inhalation on oxygen saturation in a mouse model of inflamed lungs by the lipopolysaccharides (LPS) was performed. Oxygen saturation testing was performed at several time points on mice that have been anesthetized by isoflurane. A sensor was attached to the hind foot of the mice and the percentage of oxygen in the blood was measured using the Rodent Pulse Oximeter instrument (Kent Scientific).
Following LPS intratracheal instillation, a marked reduction in blood oxygen saturation levels was detected. ZEP3Na was then administered by inhalation at two doses 6 h and 14 h after LPS administration and the effect of ZEP3Na on blood oxygen saturation was monitored 0, 2, 6, 12, 24 and 48 hours following ZEP3Na administration. Saturation data was analyzed by ANOVA followed by Tukey-Kramer test. Significance level was defined as ∝=0.05.

Regarding “pGlu-Asn-Trp-Lys(Octanoyl)-OH ([pGlu]NWK(Octanoyl)-OH; SMILES CCCCCCCC(=O)NCCCC[C@H](NC(=O)[C@H](Cc1c[nH]c2ccccc12)NC(=O)[C@H](CC(N)=O)NC(=O)[C@@H]1CCC(=O)N1)C(=O)O) [ZEP3]”, the “time after administration over which increase in oxygen saturation was exerted” value (acute inflamed lung model) is reported as “at least 48 hours”. The “time following treatment at which increase in oxygen saturation is statistically significant” value (administration by inhalation, LPS model) came to 12 h.

The values are drawn from patent US20240252581A1, “COMPOSITIONS AND METHODS FOR TREATING RESPIRATORY DISTRESS” (S.I.S. SHULOV INNOVATIVE SCIENCE LTD., priority 2021, published 2024).
